In US20260240851A1, “Treatment of Parkinson's Disease in a Patient Using a Glucocerebrosidase Activator” (BIAL - R&D Investments, S.A., priority 2023, published 2026):
Read-outs that look alike come from different tables or passages of the source.

Test: LTI-291-002 multiple ascending dose study: plasma and CSF pharmacokinetics
Type: in vivo, human
Experimental: This study was a phase 1, randomized, double-blind, placebo-controlled, multiple ascending dose study of Compound A in 4 cohorts of middle-aged to elderly healthy participants (aged 52 to 75 years). […] A total of 39 healthy subjects were enrolled in 4 sequential cohorts. Subjects in each cohort received once-daily oral doses of 3 mg (n=7), 10 mg (n=8), 30 mg (n=8), or 60 mg (n=8) Compound A or placebo (n=8) for 14 days. Pharmacokinetic parameters were determined for each dose at Day 1, Day 7, and Day 14. Cerebrospinal fluid samples for Compound A concentrations were measured before the first dose and 4 hours after the last dose for each dose level. GluCer, glucosyl sphingosine (GluSph), and lactosyl-ceramide (LacCer) were measured in plasma, PBMCs, and CSF as biomarkers of pharmacological effects. Pharmacodynamic measurements consisted of battery of CNS (NeuroCart®) assessments including Saccadic Eye Movements, Smooth Pursuit Eye Movements, Adaptive Tracking, Body Sway, Visual Verbal Learning Test, and pharmaco-EEG.

[1] = 3 mg daily, dose 1, geometric mean
[2] = 3 mg daily, dose 7, geometric mean
[3] = 3 mg daily, dose 14, geometric mean
[4] = 10 mg daily, dose 1, geometric mean
[5] = 10 mg daily, dose 7, geometric mean
[6] = 10 mg daily, dose 14, geometric mean
[7] = 30 mg daily, dose 1, geometric mean
[8] = 30 mg daily, dose 7, geometric mean
[9] = 30 mg daily, dose 14, geometric mean
[10] = 60 mg daily, dose 1, geometric mean
[11] = 60 mg daily, dose 7, geometric mean
[12] = 60 mg daily, dose 14, geometric mean
[13] = human, plasma, oral, 3 mg, 3 mg daily, dose 1, geometric mean
[14] = human, plasma, oral, 3 mg, 3 mg daily, dose 7, geometric mean
[15] = human, plasma, oral, 3 mg, 3 mg daily, dose 14, geometric mean
[16] = human, plasma, oral, 10 mg, 10 mg daily, dose 1, geometric mean
[17] = human, plasma, oral, 10 mg, 10 mg daily, dose 7, geometric mean

## CCCCCO[C@H]1CC[C@H](NC(=O)c2cnn3c(C)cc(C)nc23)CC1 [Compound A, 5,7-dimethyl-N-((1S*,4S)-4-(pentyloxy)cyclohexyl)pyrazolo[1,5-a]pyrimidine-3-carboxamide]
[1]
  AUC0-inf/dose: 818 ng·h/mL/mg
  Cmax/dose: 29.7 ng/mL/mg
[2]
  AUC0-inf/dose: 1570 ng·h/mL/mg
  Accumulation Index: 2.45
  Cavg: 80.1 ng/mL
  Cmax/dose: 47.2 ng/mL/mg
[3]
  AUC0-inf/dose: 2520 ng·h/mL/mg
  Accumulation Index: 2.78
  Cavg: 115 ng/mL
  Cmax/dose: 51.0 ng/mL/mg
  Fluctuation: 52.9%
[4]
  AUC0-inf/dose: 613 ng·h/mL/mg
  Cmax/dose: 30.7 ng/mL/mg
[5]
  AUC0-inf/dose: 1780 ng·h/mL/mg
  Accumulation Index: 2.29
  Cavg: 322 ng/mL
  Cmax/dose: 50.5 ng/mL/mg
[6]
  AUC0-inf/dose: 1860 ng·h/mL/mg
  Accumulation Index: 2.49
  Cavg: 313 ng/mL
  Cmax/dose: 49.3 ng/mL/mg
  Fluctuation: 76.0%
[7]
  AUC0-inf/dose: 753 ng·h/mL/mg
  Cmax/dose: 29.0 ng/mL/mg
[8]
  AUC0-inf/dose: 1890 ng·h/mL/mg
  Accumulation Index: 2.11
  Cavg: 1100 ng/mL
  Cmax/dose: 53.3 ng/mL/mg
[9]
  AUC0-inf/dose: 4620 ng·h/mL/mg
  Accumulation Index: 5.22
  Cavg: 1090 ng/mL
  Cmax/dose: 50.0 ng/mL/mg
  Fluctuation: 58.1%
[10]
  AUC0-inf/dose: 655 ng·h/mL/mg
  Cmax/dose: 32.6 ng/mL/mg
[11]
  AUC0-inf/dose: 2310 ng·h/mL/mg
  Accumulation Index: 2.72
  Cavg: 2170 ng/mL
  Cmax/dose: 53.2 ng/mL/mg
[12]
  AUC0-inf/dose: 2160 ng·h/mL/mg
  Accumulation Index: 2.53
  Cavg: 2120 ng/mL
  Cmax/dose: 51.2 ng/mL/mg
  Fluctuation: 67.6%
3 to 60 mg, after 1st, 7th and 14th dose
  total exposure (Cmax and AUC0-24) versus dose: increase in a dose proportional manner
human, CSF and plasma, oral, after the 14th daily dose, across dose levels, read-out: CSF-to-plasma concentration ratio, mean
  Kp at 4 h: 0.0122 to 0.0128
human, in vivo, oral, multiple doses, read-out: t½ after multiple doses in Trial LTI-291-002
  half-life: 25 to 35 h
[13]
  AUC(0-inf): 2450 ng·h/mL
  Cmax: 89.1 ng/mL
human, plasma, oral, 3 mg, 3 mg daily, dose 1, geometric mean, read-out: AUC0-24
  AUC(0-t): 1050 ng·h/mL
human, plasma, oral, 3 mg, 3 mg daily, dose 1, geometric mean, read-out: AUC0-last
  AUC(0-t): 1040 ng·h/mL
human, plasma, oral, 3 mg, 3 mg daily, dose 1, geometric mean, read-out: t½ (converted)
  half-life: 27.9 h
[14]
  AUC(0-inf): 4720 ng·h/mL
  Cmax: 142 ng/mL
human, plasma, oral, 3 mg, 3 mg daily, dose 7, geometric mean, read-out: AUC0-24
  AUC(0-t): 1920 ng·h/mL
human, plasma, oral, 3 mg, 3 mg daily, dose 7, geometric mean, read-out: AUC0-last
  AUC(0-t): 2420 ng·h/mL
human, plasma, oral, 3 mg, 3 mg daily, dose 7, geometric mean, read-out: t½ (converted)
  half-life: 31.3 h
[15]
  AUC(0-inf): 7560 ng·h/mL
  Cmax: 153 ng/mL
human, plasma, oral, 3 mg, 3 mg daily, dose 14, geometric mean, read-out: AUC0-24
  AUC(0-t): 2770 ng·h/mL
human, plasma, oral, 3 mg, 3 mg daily, dose 14, geometric mean, read-out: AUC0-last
  AUC(0-t): 4510 ng·h/mL
human, plasma, oral, 3 mg, 3 mg daily, dose 14, geometric mean, read-out: t½ (converted)
  half-life: 36.5 h
[16]
  AUC(0-inf): 6130 ng·h/mL
  Cmax: 307 ng/mL
human, plasma, oral, 10 mg, 10 mg daily, dose 1, geometric mean, read-out: AUC0-24
  AUC(0-t): 3410 ng·h/mL
human, plasma, oral, 10 mg, 10 mg daily, dose 1, geometric mean, read-out: AUC0-last
  AUC(0-t): 3380 ng·h/mL
human, plasma, oral, 10 mg, 10 mg daily, dose 1, geometric mean, read-out: t½ (converted)
  half-life: 20.7 h
[17]
  AUC(0-inf): 17800 ng·h/mL
  Cmax: 505 ng/mL
human, plasma, oral, 10 mg, 10 mg daily, dose 7, geometric mean, read-out: AUC0-24
  AUC(0-t): 7730 ng·h/mL
